Results as given in paper PMC10800023 (Human Molecular Genetics, 2023).
One block for each compound: values may come before it.

Key:
human P-gp (MDR1) = test: MDR1-MDCK permeability / P-gp efflux assay
Procedure: (§1) To measure transport by P-gp, Madin-Darby canine kidney (MDCK) cells that had been transfected with the human P-gp (MDR1) gene were plated in a Transwell plate and cultured until polarized. MDCK cells that are not transfected with human P-gp were used as a control. Compounds were added to either the apical or the basolateral side of the cells, and transport across the membrane was measured.
(§2) Testing for permeability and MDR1 substrate assessment was done in MDCK cells transfected to overexpress human MDR1 gene that encodes efflux transporter protein (P-gp). […] Briefly, cells were maintained in Dulbecco’s modified Eagle medium (DMEM) with 10% fetal bovine serum and 1% penicillin/streptomycin in a humidified incubator at 37°C with 5% CO2. The study was performed by Absorption Systems (now Pharmaron; Exton, PA). The MDR1-MDCK and MDCK control cell lines were seeded into 12-well plates for 7 days. Integrity of monolayer tight junctions was monitored preincubation by transepithelial electrical resistance (TEER) measurement. […] The samples were withdrawn at t = 0 and 60 min from the receiver and donor compartments. Compound levels were measured by LC/MS–MS. Additionally, post-assay, cell monolayer integrity was checked with Lucifer Yellow permeability measurement. Transport assay low- and high-permeability control compounds were run in parallel for assay validation. Papp values were calculated considering compound concentrations across the monolayer and cell surface area. Efflux ratios were calculated based on Papp B > A over Papp A > B. The difference between the MDR1-MDCK and the MDCK cell efflux ratios was also calculated. […] Compounds were classified by Absorption Systems/Pharmaron as follows: […]

MDCK cells = test: MDCK control cell permeability (not transfected with human P-gp); conditions: dog, MDCK-MDR1, 60 min, pH 7.4
Procedure: as §1, §2

P-gp (MDR1) = test: MDR1-MDCK permeability / P-gp efflux assay; conditions: MDCK-MDR1, pH 7.4
Procedure: as §1, §2

[1] = MDCK control cell permeability (not transfected with human P-gp); conditions: dog, pH 7.4
Procedure: as §1, §2

[2] = dog, MDCK-MDR1, 60 min, 1 μM, pH 7.4
[3] = dog, MDCK-MDR1, 60 min, 10 μM, pH 7.4

Papp values (human P-gp (MDR1); MDCK-MDR1): < 3 ×10⁻⁶ cm/s
Apical to Basolateral MDR1-MDCK (human P-gp (MDR1); [2]): 1.08 10 ^ −6 cm/s
Basolateral to Apical MDR1-MDCK (human P-gp (MDR1); [2]): 72.8 10 ^ −6 cm/s
Apical to Basolateral MDR1-MDCK (human P-gp (MDR1); [3]): 1.11 10 ^ −6 cm/s
Basolateral to Apical MDR1-MDCK (human P-gp (MDR1); [3]): 73.6 10 ^ −6 cm/s
Apical to Basolateral MDCK (MDCK cells; 1 μM): 12.4 10 ^ −6 cm/s
Basolateral to Apical MDCK (MDCK cells; 1 μM): 15.5 10 ^ −6 cm/s
Apical to Basolateral MDCK (MDCK cells; 10 μM): 6.28 10 ^ −6 cm/s
Basolateral to Apical MDCK (MDCK cells; 10 μM): 8.8 10 ^ −6 cm/s
SMILES: CC1=N[C@]2(C(=O)CO)[C@@H](C[C@H]3[C@@H]4CCC5=CC(=O)C=C[C@]5(C)[C@H]4[C@@H](O)C[C@@]32C)O1 [21-Des-deflazacort]

Papp at 60 min (P-gp (MDR1)): 19.7 to 21.4 ×10⁻⁶ cm/s
SMILES: CC(C)NCC(O)COc1cccc2ccccc12 (centres unmarked) [propranolol]

Papp A→B at 60 min (P-gp (MDR1)): 0.0521 to 0.0558 ×10⁻⁶ cm/s
Papp B→A at 60 min (P-gp (MDR1)): 19.6 to 20.7 ×10⁻⁶ cm/s
efflux ratio at 60 min (P-gp (MDR1)): 352 to 398
SMILES: C[C@H]1O[C@@H](O[C@H]2[C@@H](O)C[C@H](O[C@H]3[C@@H](O)C[C@H](O[C@H]4CC[C@@]5(C)[C@H](CC[C@@H]6[C@@H]5C[C@@H](O)[C@]5(C)[C@@H](C7=CC(=O)OC7)CC[C@]65O)C4)O[C@@H]3C)O[C@@H]2C)C[C@H](O)[C@@H]1O [digoxin]

Apical to Basolateral MDR1-MDCK (human P-gp (MDR1); 10 μM): 0.499 10 ^ −6 cm/s
brain penetration classification (human P-gp (MDR1); 1 and 10 μM, from Papp (A-to-B) and efflux ratio): low
Papp A→B at 60 min, 1 μM (human P-gp (MDR1); dog, MDCK-MDR1, pH 7.4): 0.263 ×10⁻⁶ cm/s
Papp B→A at 60 min, 1 μM (human P-gp (MDR1); dog, MDCK-MDR1, pH 7.4): 43.8 ×10⁻⁶ cm/s
Papp B→A at 60 min, 10 μM (human P-gp (MDR1); dog, MDCK-MDR1, pH 7.4): 51.8 ×10⁻⁶ cm/s
Papp at 60 min (P-gp (MDR1)): < 3 ×10⁻⁶ cm/s
Papp A→B at 60 min, 1 μM [1]: 2.83 ×10⁻⁶ cm/s
Papp A→B at 60 min, 10 μM [1]: 2.09 ×10⁻⁶ cm/s
Papp B→A at 60 min, 1 μM [1]: 3.42 ×10⁻⁶ cm/s
Papp B→A at 60 min, 10 μM [1]: 2.86 ×10⁻⁶ cm/s
SMILES: C[C@]12C=CC(=O)C=C1CC[C@@H]1[C@@H]2C(=O)C[C@@]2(C)[C@H]1CC[C@]2(O)C(=O)CO [Prednisone]
